Measured values: patent publication US10517889B2, “Modulators of SMAD7 expression” (Ionis Pharmaceuticals, Inc., priority 2017, dated 2019)
Where “and” joins values, the source holds several entries; their conditions need not be identical. Identical values can stand only once. Strand notation (5' to 3'): a small letter for the sugar, then the base; units joined by * are phosphorothioate-linked, units joined directly phosphodiester-linked; [ ] holds rarer units or linkages, { } end groups; capitals alone tell only the bases. e = 2'-O-(2-methoxyethyl) (MOE); [5mC] = 5-methylcytosine; d = 2'-deoxy (DNA)

Experiments:
human SMAD7 mRNA [1] = test: Antisense inhibition of human SMAD7 mRNA expression in Hep3B cells by 5-10-5 MOE gapmers, single concentration, electroporation, RT-PCR (Example 1, Study 1 and 2); type: cell-based
Method in brief: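 Hep3B cells (20,000/well) electroporated with 5-10-5 MOE gapmer at 5,000 nM or 15,000 nM for approximately 24 h. SMAD7 mRNA quantified by real-time PCR with primer probe set RTS5062 and normalized to RIBOGREEN total RNA. Values are percent inhibition relative to untreated controls.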

human SMAD7 mRNA [2] = test: Dose-dependent inhibition of human SMAD7 mRNA expression in Hep3B cells (Example 3, Study 1 and 2); type: cell-based; conditions: electroporation; for % inhibition of SMAD7 mRNA expression: approximately 16 hours; for IC50: Study 1 (312.5-20000 nM)
Method in brief: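 Hep3B cells, 20,000 per well, electroporated with antisense oligonucleotide at 0.31, 1.25, 5.00 or 20.00 μM (first series) or 0.74, 2.22, 6.67 or 20.00 μM (second series). After ~16 h, SMAD7 mRNA measured by RT-qPCR (RTS5062), normalised to RIBOGREEN total RNA. Percent inhibition vs untreated cells; IC50 derived.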

[3] = electroporation with 15,000 nM antisense oligonucleotide (Study 2), 5-10-5 MOE gapmers targeting SEQ ID NO: 1 and 2
[4] = 312.5 nM, Study 1, relative to untreated control cells
[5] = Study 2, electroporation with 15,000 nM antisense oligonucleotide, 5-10-5 MOE gapmers targeting SEQ ID NO: 1 and 2
[6] = electroporation, 15,000 nM antisense oligonucleotide (Study 2), 5-10-5 MOE gapmers targeting SEQ ID NO: 1 and 2

Row | Substance | % Inhibition of SMAD7 mRNA (human SMAD7 mRNA [1]; [3]) [%] | % inhibition of SMAD7 mRNA expression (human SMAD7 mRNA [1]; [3]) [%] | % inhibition of SMAD7 mRNA expression (human SMAD7 mRNA [2]; [4]) [%] | % inhibition of SMAD7 mRNA expression (human SMAD7 mRNA [2]; 1250.0 nM, Study 1) [%] | % inhibition of SMAD7 mRNA expression (human SMAD7 mRNA [2]; 5000.0 nM, Study 1) [%] | % inhibition of SMAD7 mRNA expression (human SMAD7 mRNA [2]; 20000.0 nM, Study 1) [%] | IC50 (human SMAD7 mRNA [2]) | % inhibition of SMAD7 mRNA expression (human SMAD7 mRNA [1]; [5]) [%] | % inhibition of SMAD7 mRNA expression (human SMAD7 mRNA [1]; electroporation, 15,000 nM, approximately 24 hours, relative to untreated control cells, gapmers targeting SEQ ID NO: 1 and 2) [%] | % inhibition of SMAD7 mRNA expression (human SMAD7 mRNA [1]; [6]) [%] | % Inhibition (human SMAD7 mRNA [1]; [5]) [%]
1 | 771632 (antisense eA*eA*eT*e[5mC]*e[5mC]*dT*dT*d[5mC]*dT*dT*dG*dG*dA*dG*dG*eG*eA*eA*eG*eG) [compound 771632] | 54 | 31 | 6 | 6 | 46 | 64 | 9 µM | – | – | – | –
2 | 771634 (antisense eT*eG*eA*e[5mC]*eG*dG*dA*d[5mC]*d[5mC]*dA*dA*dA*dT*d[5mC]*d[5mC]*eT*eT*e[5mC]*eT*eT) [compound 771634] | – | 53 | 0 | 3 | 40 | 36 | > 20 µM | – | – | – | –
3 | 771636 (antisense e[5mC]*e[5mC]*eT*eT*eG*dG*dG*dT*dT*dA*dT*dG*dA*d[5mC]*dG*eG*eA*e[5mC]*e[5mC]*eA) [compound 771636] | – | – | – | – | – | – | > 20 µM and 16 µM | 0 | – | – | –
4 | 771641 (antisense eA*eG*eT*eT*eA*dG*dG*dT*dG*dT*d[5mC]*dA*dG*d[5mC]*d[5mC]*eT*eA*eG*eG*eA) [compound 771641] | – | 71 | 3 | 16 | 24 | 50 | > 20 µM | – | – | – | –
5 | 771661 (antisense eA*eA*eT*eG*e[5mC]*dT*dT*d[5mC]*dT*d[5mC]*dT*dT*dG*dT*dT*e[5mC]*eA*eT*eT*eT) [compound 771661] | – | – | 0 | 0 | 6 | 28 | > 20 µM | – | 69 | – | –
6 | 771663 (antisense eT*eT*e[5mC]*e[5mC]*eA*dA*dT*dG*dA*dG*dA*dA*dT*dG*d[5mC]*eT*eT*e[5mC]*eT*e[5mC]) [compound 771663] | – | – | 10 | 24 | 43 | 56 | 11 µM | 56 | – | – | –
7 | 771670 (antisense eA*eG*eT*e[5mC]*e[5mC]*dT*dT*dT*d[5mC]*dT*d[5mC]*dT*d[5mC]*dT*d[5mC]*eA*eA*eA*eG*e[5mC]) [compound 771670] | – | – | 0 | 0 | 21 | 47 | > 20 µM | 46 | – | – | –
8 | 771671 (antisense eT*e[5mC]*eA*eG*eG*dA*dG*dT*d[5mC]*d[5mC]*dT*dT*dT*d[5mC]*dT*e[5mC]*eT*e[5mC]*eT*e[5mC]) [compound 771671] | – | – | 0 | 9 | 27 | 49 | > 20 µM | 69 | – | – | –
9 | 771704 (antisense e[5mC]*eA*eG*eG*eA*dG*dG*dG*dT*dA*dT*dG*d[5mC]*dA*d[5mC]*eA*e[5mC]*eT*e[5mC]*eT) [compound 771704] | 55 | – | 14 | 19 | 30 | 54 | > 20 µM | – | – | 32 | –
10 | 771705 (antisense eA*eA*eT*eG*e[5mC]*d[5mC]*d[5mC]*dT*dT*dT*dG*dA*dG*dT*dT*eT*e[5mC]*e[5mC]*e[5mC]*e[5mC]) [compound 771705] | – | – | 0 | 0 | 0 | 9 | – | – | – | 52 | –
11 | 771711 (antisense e[5mC]*eG*e[5mC]*eA*e[5mC]*dT*dT*d[5mC]*dA*d[5mC]*dA*dG*dT*dT*d[5mC]*eA*e[5mC]*eA*eG*eG) [compound 771711] | – | – | 17 | 25 | 27 | 59 | 18 µM | – | – | – | 57
